{
  "source": "patent US20130172345A1",
  "about": "“1-ACYL-4-(PHENOXY, BENZYLOXY, OR PHENYLAMINO)-1,2,3,4-TETRAHYDROQUINOLINE DERIVATIVES” (KOWA COMPANY, LTD., priority 2007, published 2013)",
  "note": "Counter-ions that a name gives are not always drawn.",
  "data": [
    {"system": "K562 cells, human proerythroblast cells", "test": "Hemoglobin production in K562 cells (fluorescence of the porphyrin ring)", "assay_type": "cell-based", "details": "144 h, test compound 6 μM, 3+3 days, non-stimulated state = 100%, read-out: production amount of hemoglobin, % of control (6 μM)", "description": "K562 cells (obtained from ATCC), which are human proerythroblast cells, were seeded at a density of 1×10^5 cells/1 mL on a 24-well plate by using complete medium (RPMI-1640 medium comprising 10% bovine fetal serum). After adding the test compound having 1000× concentration (1 μL), the cells were incubated for three days in a CO2 incubator (37° C., 5% CO2). After exchanging the medium, the cells were further incubated for three days. Then, the cells were collected and counted. After adjusting them to have 3×10^5 cells, the amount of hemoglobin produced in the cells was determined by measuring fluorescence of the porphyrin ring. Specifically, the cells which had been collected by centrifugation were suspended in 2 M oxalic acid solution (500 μL) and boiled for 30 minutes under heating. After cooling the cells, the fluorescence intensity was measured by Fluorescence micro plate reader (Spectra MAX GeminiEM, manufactured by Molecular Devices Corporation) ([…]). When hemoglobin amount in non-stimulated state, i.e., without addition of any compound, was 100%, the production amount of hemoglobin induced by each compound was calculated (% of control).", "units": {"activity at 6 µM": "%"}, "values": [
      {"smiles": "CC(=O)N1c2ccccc2[C@H](Nc2ccccc2C(=O)O)C[C@@H]1C", "note": "(relative stereo) [Compound 109, cis-1-acetyl-4-[(2-carboxyphenyl)amino]-2-methyl-1,2,3,4-tetrahydroquinoline]", "activity at 6 µM": 229},
      {"smiles": "CC(=O)N1c2ccc(-c3nc(=O)o[nH]3)cc2C(Nc2ccc(Cl)cc2)CC1C", "note": "(stereo not drawn) [Compound 120, 1-acetyl-4-[(4-chlorophenyl)amino]-2-methyl-6-[1,2,4-oxadiazol-5(2H)-on-3-yl]-1,2,3,4-tetrahydroquinoline]", "activity at 6 µM": 188},
      {"smiles": "CCOC(=O)c1ccc2c(c1)C(Nc1ccc(NS(C)(=O)=O)cc1)CC(C)N2C(C)=O", "note": "(stereo not drawn) [Compound 101, ethyl 1-acetyl-4-[(4-methanesulfonylaminophenyl)amino]-2-methyl-1,2,3,4-tetrahydroquinoline-6-carboxylate]", "activity at 6 µM": 508},
      {"smiles": "CC(=O)N1CCN(c2ccc3c(c2)C(Nc2ccc(CC(=O)O)cc2)CC(C)N3C(C)=O)CC1", "note": "(stereo not drawn) [Compound 91, 1-acetyl-6-(4-acetylpiperazinyl)-4-[(4-carboxymethylphenyl)amino]-2-methyl-1,2,3,4-tetrahydroquinoline]", "activity at 6 µM": 130},
      {"smiles": "CC(=O)N1c2ccc(C(=O)NN)cc2C(Nc2ccc(Cl)cc2)CC1C", "note": "(stereo not drawn) [Compound 115, 1-acetyl-4-[(4-chlorophenyl)amino]-2-methyl-1,2,3,4-tetrahydroquinoline-6-carbohydrazide]", "activity at 6 µM": 163},
      {"smiles": "CC(=O)Nc1ccc2c(c1)C(Nc1ccc(Cl)cc1)CC(C)N2C(C)=O", "note": "(stereo not drawn) [Compound 96, 1-acetyl-6-acetylamino-4-[(4-chlorophenyl)amino]-2-methyl-1,2,3,4-tetrahydroquinoline]", "activity at 6 µM": 530},
      {"smiles": "CC(=O)N1c2ccc(N3CC(C)OC(C)C3)cc2C(Nc2ccc(NS(C)(=O)=O)cc2)CC1C", "note": "(stereo not drawn) [Compound 110, 1-acetyl-6-[cis-2,6-dimethylmorpholin-4-yl]-4-[(4-methanesulfonylaminophenyl)amino]-2-methyl-1,2,3,4-tetrahydroquinoline.2 hydrochloride]", "activity at 6 µM": 211},
      {"smiles": "CC(=O)N1c2ccccc2[C@H](Oc2ccc(OCc3ccccc3)cc2)C[C@@H]1C", "note": "(relative stereo) [Compound 64, cis-1-acetyl-4-(4-benzyloxyphenoxy)-2-methyl-1,2,3,4-tetrahydroquinoline]", "activity at 6 µM": 113},
      {"smiles": "CC(=O)N1c2c(Br)cccc2C(Nc2ccccc2)CC1C", "note": "(stereo not drawn) [Compound 63, 1-acetyl-8-bromo-4-phenylamino-2-methyl-1,2,3,4-tetrahydroquinoline]", "activity at 6 µM": 98},
      {"smiles": "CC(=O)N1c2ccc(C(=O)O)cc2C(Nc2ccc(F)cc2)CC1C", "note": "(stereo not drawn) [Compound 100, 1-acetyl-4-[(4-fluorophenyl)amino]-2-methyl-1,2,3,4-tetrahydroquinoline-6-carboxylic acid]", "activity at 6 µM": 105},
      {"smiles": "CC(=O)N1c2ccc(N3CC(C)OC(C)C3)cc2C(Nc2ccc(Cl)cc2)CC1C", "note": "(stereo not drawn) [Compound 83, 1-acetyl-4-[(4-chlorophenyl)amino]-6-[(cis-3,5-dimethyl)morpholino]-2-methyl-1,2,3,4-tetrahydroquinoline]", "activity at 6 µM": 282},
      {"smiles": "CC(=O)N1c2ccc(N3CCN(C(=O)c4ccccc4)CC3)cc2C(Nc2ccc(Cl)cc2)CC1C", "note": "(stereo not drawn) [Compound 86, 1-acetyl-6-[(4-benzoyl)piperazino]-2-methyl-4-[(4-chlorophenyl)amino]-1,2,3,4-tetrahydroquinoline]", "activity at 6 µM": 237},
      {"smiles": "CC(=O)N1c2ccc(F)cc2[C@H](Oc2ccccc2)C[C@@H]1C", "note": "(relative stereo) [Compound 35, cis-1-acetyl-6-fluoro-2-methyl-4-phenoxy-1,2,3,4-tetrahydroquinoline]", "activity at 6 µM": 287},
      {"smiles": "CC(=O)N1c2ccccc2[C@H](Nc2ccc(Cc3ccccc3)cc2)C[C@@H]1C", "note": "(relative stereo) [Compound 112, cis-1-acetyl-4-[(4-benzylphenyl)amino]-2-methyl-1,2,3,4-tetrahydroquinoline]", "activity at 6 µM": 139},
      {"smiles": "CC(=O)N1CC(C)(C)C(Nc2ccccc2)c2ccccc21", "note": "(stereo not drawn) [Compound 60, cis-1-acetyl-3,3-dimethyl-4-phenylamino-1,2,3,4-tetrahydroquinoline]", "activity at 6 µM": 113}
    ]}
  ]
}
